Columns and labels:
[1] = test system: Rattus norvegicus; assay: Reduction of lymphocyte count in rat at 1 mg/kg, po measured at 24 hrs relative to control; type: functional; set-up: scale not given: the % may be the effect or the level left
[2] = test system: Rattus norvegicus; assay: Reduction of lymphocyte count in rat at 1 mg/kg, po measured at 8 hrs relative to control; type: functional; set-up: scale not given: the % may be the effect or the level left
[3] = target: Sphingosine 1-phosphate receptor 3 (Homo sapiens, UniProt Q99500); assay: Agonist activity at human S1P3R expressed in RBL membranes assessed as [35S]GTPgammaS binding after 30 mins; type: functional, cell membranes
Sequence of Sphingosine 1-phosphate receptor 3 (Q99500 whole entry): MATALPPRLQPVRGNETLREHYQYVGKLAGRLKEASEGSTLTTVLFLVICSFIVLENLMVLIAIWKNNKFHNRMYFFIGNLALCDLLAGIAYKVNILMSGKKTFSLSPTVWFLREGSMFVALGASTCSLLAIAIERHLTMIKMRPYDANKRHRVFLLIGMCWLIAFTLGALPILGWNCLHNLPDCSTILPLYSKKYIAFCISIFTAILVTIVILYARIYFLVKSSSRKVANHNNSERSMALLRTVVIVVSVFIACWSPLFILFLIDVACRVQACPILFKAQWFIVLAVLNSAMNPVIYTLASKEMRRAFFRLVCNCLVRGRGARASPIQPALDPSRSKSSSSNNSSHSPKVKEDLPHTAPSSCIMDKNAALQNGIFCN

[4] = test system: Rattus norvegicus; assay: Reduction of lymphocyte count in rat at 1 mg/kg, po measured at 4 hrs relative to control; type: functional; set-up: scale not given: the % may be the effect or the level left
[5] = target: Sphingosine 1-phosphate receptor 1 (Homo sapiens, UniProt P21453); assay: Agonist activity at human S1P1R expressed in RH7777 membranes assessed as [35S]GTPgammaS binding after 30 mins; type: functional, cell membranes
Sequence of Sphingosine 1-phosphate receptor 1 (P21453 whole entry): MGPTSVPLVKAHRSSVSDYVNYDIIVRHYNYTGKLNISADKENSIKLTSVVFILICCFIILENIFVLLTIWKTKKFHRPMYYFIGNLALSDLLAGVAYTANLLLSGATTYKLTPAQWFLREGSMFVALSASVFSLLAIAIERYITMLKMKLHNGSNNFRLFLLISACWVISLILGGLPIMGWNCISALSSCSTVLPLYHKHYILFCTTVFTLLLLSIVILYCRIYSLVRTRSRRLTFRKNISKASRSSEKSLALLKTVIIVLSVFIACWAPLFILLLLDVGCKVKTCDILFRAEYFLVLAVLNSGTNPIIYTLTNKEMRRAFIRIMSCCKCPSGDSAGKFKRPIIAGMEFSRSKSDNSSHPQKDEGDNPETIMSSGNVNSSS

[6] = Half life in po dosed C57BL/6 mouse at 1 mg/kg, iv using DMSO/1% methylcellulose 1:99 (w/v); type: ADME, organism-based; set-up: dose 1 mg/kg, route oral; conditions: in vivo
[7] = test system: Mus musculus; assay: Volume of distribution at steady state in po dosed C57BL/6 mouse at 1 mg/kg, iv using DMSO/1% methylcellulose 1:99 (w/v); type: ADME, organism-based; set-up: dose 1 mg/kg, route oral; conditions: in vivo
[8] = Oral bioavailability in C57BL/6 mouse at 3 mg/kg using 1% methylcellulose (w/v); type: ADME, organism-based; conditions: in vivo
[9] = Oral bioavailability in C57BL/6 mouse at 3 mg/kg using DMSO/1% methylcellulose 1:99 (w/v); type: ADME, organism-based; conditions: in vivo
[10] = Fraction unbound in dog blood; type: ADME, tissue-based, Canis lupus familiaris
[11] = Inhibition of CYP3A4VG (unknown origin); type: ADME, Homo sapiens
[12] = test system: Hepatocyte; assay: Intrinsic clearance in rat hepatocyte; type: ADME, cell-based; conditions: hepatocytes
[13] = Half life in CD rat at 1 mg/kg, iv or 3 mg/kg, po using DMSO/10%(w/v) Kleptose, 0.9% saline(aq) (2%/98%); type: ADME, organism-based; conditions: in vivo
[14] = Clearance in CD rat at 1 mg/kg, iv or 3 mg/kg, po using DMSO/10%(w/v) Kleptose, 0.9% saline(aq) (2%/98%); type: ADME, organism-based; conditions: in vivo
[15] = Oral bioavailability in cynomolgus monkey at 3 mg/kg using Methylcellulose(aq), 1% (w/v) suspension; type: ADME, organism-based, Macaca fascicularis; conditions: in vivo
[16] = (§1) Volume of distribution at steady state in Beagle dog at 1 mg/kg, iv or 2 mg/kg, po using DMSO/10%(w/v) Kleptose, 0.9% saline(aq) (2%/98%); type: ADME, organism-based, Canis lupus familiaris; conditions: beagle, in vivo, read-out: Vdss
[17] = (§2) Half life in Beagle dog at 1 mg/kg, iv or 2 mg/kg, po using DMSO/10%(w/v) Kleptose, 0.9% saline(aq) (2%/98%); type: ADME, organism-based, Canis lupus familiaris; conditions: beagle, in vivo
[18] = Intrinsic clearance in dog hepatocyte; type: ADME, cell-based, Canis lupus familiaris; conditions: hepatocytes
[19] = test system: Rattus norvegicus; assay: Reduction in lymphocyte level in po dosed male Lewis rat; type: functional, organism-based
[20] = target: Cytochrome P450 2D6 (Homo sapiens, UniProt P10635); assay: Inhibition of CYP2D6 (unknown origin); type: ADME
Sequence of Cytochrome P450 2D6 (P10635 whole entry): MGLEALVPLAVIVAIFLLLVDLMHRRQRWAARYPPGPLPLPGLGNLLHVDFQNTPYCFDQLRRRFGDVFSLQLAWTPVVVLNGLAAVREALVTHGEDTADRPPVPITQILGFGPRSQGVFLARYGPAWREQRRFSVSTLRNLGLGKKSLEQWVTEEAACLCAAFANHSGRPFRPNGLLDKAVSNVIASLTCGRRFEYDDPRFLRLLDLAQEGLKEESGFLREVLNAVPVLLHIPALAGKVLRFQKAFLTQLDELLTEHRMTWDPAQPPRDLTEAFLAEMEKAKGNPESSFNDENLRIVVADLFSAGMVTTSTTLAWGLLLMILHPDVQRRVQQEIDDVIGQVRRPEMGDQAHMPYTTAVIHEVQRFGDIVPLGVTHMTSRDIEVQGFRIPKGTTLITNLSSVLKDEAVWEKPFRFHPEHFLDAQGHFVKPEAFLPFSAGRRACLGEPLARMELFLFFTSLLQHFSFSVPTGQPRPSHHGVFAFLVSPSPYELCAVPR

[21] = Half life in cynomolgus monkey at 1 mg/kg, iv or 3 mg/kg, po using DMSO/10%(w/v) Kleptose, 0.9% saline(aq) (2%/98%); type: ADME, organism-based, Macaca fascicularis; conditions: in vivo
[22] = target: Albumin (Homo sapiens, UniProt P02768); assay: Fraction unbound as a percentage in human serum albumin; type: ADME
Sequence of Albumin (P02768 whole entry): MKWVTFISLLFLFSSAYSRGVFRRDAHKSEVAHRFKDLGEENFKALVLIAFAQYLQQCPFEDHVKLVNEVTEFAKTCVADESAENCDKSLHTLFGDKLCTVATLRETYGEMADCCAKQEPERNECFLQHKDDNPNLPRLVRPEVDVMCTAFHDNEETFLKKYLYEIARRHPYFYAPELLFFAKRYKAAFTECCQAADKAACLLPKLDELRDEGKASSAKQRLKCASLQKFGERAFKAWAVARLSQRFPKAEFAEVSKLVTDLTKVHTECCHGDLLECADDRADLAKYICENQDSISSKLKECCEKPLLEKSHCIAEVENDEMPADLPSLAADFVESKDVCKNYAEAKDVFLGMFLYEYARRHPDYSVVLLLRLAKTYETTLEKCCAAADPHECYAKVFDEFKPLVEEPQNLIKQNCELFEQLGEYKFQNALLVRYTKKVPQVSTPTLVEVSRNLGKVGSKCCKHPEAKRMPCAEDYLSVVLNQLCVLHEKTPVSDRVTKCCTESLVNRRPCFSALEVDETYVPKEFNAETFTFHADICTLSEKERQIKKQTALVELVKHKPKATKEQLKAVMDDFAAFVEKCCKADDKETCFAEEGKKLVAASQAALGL

[23] = target: Cytochrome P450 2C19 (Homo sapiens, UniProt P33261); assay: Inhibition of CYP2C19 (unknown origin); type: ADME
Sequence of Cytochrome P450 2C19 (P33261 whole entry): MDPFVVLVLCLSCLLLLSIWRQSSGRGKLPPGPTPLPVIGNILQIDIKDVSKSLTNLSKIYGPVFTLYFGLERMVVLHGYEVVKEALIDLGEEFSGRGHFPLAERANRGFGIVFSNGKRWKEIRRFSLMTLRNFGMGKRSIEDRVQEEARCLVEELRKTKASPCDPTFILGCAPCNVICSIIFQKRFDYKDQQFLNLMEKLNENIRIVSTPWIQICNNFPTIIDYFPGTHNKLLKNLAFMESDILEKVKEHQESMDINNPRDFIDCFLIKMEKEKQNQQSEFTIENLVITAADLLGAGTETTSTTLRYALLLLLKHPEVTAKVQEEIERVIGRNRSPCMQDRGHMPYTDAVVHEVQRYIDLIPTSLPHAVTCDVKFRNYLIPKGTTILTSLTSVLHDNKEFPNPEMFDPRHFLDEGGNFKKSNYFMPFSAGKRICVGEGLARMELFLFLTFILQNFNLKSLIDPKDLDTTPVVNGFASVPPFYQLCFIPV

[24] = (§3) Oral bioavailability in CD rat at 3 mg/kg using Methylcellulose(aq), 1% (w/v) suspension; type: ADME, organism-based; conditions: CD, in vivo
[25] = Fraction unbound in cynomolgus monkey blood; type: ADME, tissue-based, Macaca fascicularis
[26] = Solubility in fed-state simulated intestinal fluid at pH 6.5 after 24 hrs; type: ADME
[27] = Solubility in fed-state simulated intestinal fluid at pH 5 after 24 hrs; type: ADME
[28] = target: T1, Cytochrome P450 1A2 (Homo sapiens, UniProt P05177); assay: Inhibition of CYP1A2 (unknown origin); type: ADME
T1 sequence (P05177 whole entry): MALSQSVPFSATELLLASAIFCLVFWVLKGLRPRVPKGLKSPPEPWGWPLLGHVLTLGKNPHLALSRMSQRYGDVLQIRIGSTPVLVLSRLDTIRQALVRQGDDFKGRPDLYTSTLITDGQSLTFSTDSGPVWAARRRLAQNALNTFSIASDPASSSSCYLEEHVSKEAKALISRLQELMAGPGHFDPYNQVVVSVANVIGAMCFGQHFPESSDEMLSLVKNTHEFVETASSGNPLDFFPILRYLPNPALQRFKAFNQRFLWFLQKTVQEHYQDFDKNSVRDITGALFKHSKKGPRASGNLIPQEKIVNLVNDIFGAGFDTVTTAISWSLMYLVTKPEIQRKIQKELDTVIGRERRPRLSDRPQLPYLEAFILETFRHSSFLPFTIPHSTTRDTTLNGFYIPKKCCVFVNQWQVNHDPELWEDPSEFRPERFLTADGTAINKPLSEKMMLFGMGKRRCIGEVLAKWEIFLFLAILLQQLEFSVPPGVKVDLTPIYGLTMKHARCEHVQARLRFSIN

[29] = Volume of distribution at steady state in CD rat at 1 mg/kg, iv or 3 mg/kg, po using DMSO/10%(w/v) Kleptose, 0.9% saline(aq) (2%/98%); type: ADME, organism-based; conditions: in vivo, read-out: Vdss
[30] = Volume of distribution at steady state in cynomolgus monkey at 1 mg/kg, iv or 3 mg/kg, po using DMSO/10%(w/v) Kleptose, 0.9% saline(aq) (2%/98%); type: ADME, organism-based, Macaca fascicularis; conditions: in vivo, read-out: Vdss
[31] = Permeability in MDCK cells; type: ADME, cell-based, Canis lupus familiaris; conditions: dog, read-out: permeability
[32] = (§4) Oral bioavailability in Beagle dog at 2 mg/kg using Methylcellulose(aq), 1% (w/v) suspension; type: ADME, organism-based, Canis lupus familiaris; conditions: beagle, in vivo
[33] = Clearance in Beagle dog at 1 mg/kg, iv or 2 mg/kg, po using DMSO/10%(w/v) Kleptose, 0.9% saline(aq) (2%/98%); type: ADME, organism-based, Canis lupus familiaris; conditions: in vivo
[34] = Clearance in cynomolgus monkey at 1 mg/kg, iv or 3 mg/kg, po using DMSO/10%(w/v) Kleptose, 0.9% saline(aq) (2%/98%); type: ADME, organism-based, Macaca fascicularis; conditions: in vivo
[35] = Inhibition of CYP3A4VR (unknown origin); type: ADME, Homo sapiens
[36] = Fraction unbound in rat blood; type: ADME, tissue-based
[37] = Fraction unbound in human blood; type: ADME, tissue-based
[38] = Intrinsic clearance in cynomolgus monkey hepatocyte; type: ADME, cell-based, Macaca fascicularis; conditions: hepatocytes, read-out: CLH
[39] = target: Cytochrome P450 2C9 (Homo sapiens, UniProt P11712); assay: Inhibition of CYP2C9 (unknown origin); type: ADME
Sequence of Cytochrome P450 2C9 (P11712 whole entry): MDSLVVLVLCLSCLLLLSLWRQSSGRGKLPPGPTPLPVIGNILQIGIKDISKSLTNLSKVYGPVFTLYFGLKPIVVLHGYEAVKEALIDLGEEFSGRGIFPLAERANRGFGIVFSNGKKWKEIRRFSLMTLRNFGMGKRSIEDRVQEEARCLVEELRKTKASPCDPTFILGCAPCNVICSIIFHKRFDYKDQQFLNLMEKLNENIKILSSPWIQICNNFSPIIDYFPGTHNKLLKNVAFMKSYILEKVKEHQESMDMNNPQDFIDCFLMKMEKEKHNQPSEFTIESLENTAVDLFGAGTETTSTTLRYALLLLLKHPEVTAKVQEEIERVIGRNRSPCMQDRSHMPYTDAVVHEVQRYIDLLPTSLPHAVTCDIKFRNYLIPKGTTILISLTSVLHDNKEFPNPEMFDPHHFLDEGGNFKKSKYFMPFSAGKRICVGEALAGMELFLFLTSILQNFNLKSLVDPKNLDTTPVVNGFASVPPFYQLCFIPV

[40] = test system: Canis familiaris; assay: as §2; type: ADME, organism-based, Canis lupus familiaris; conditions: in vivo
[41] = test system: Rattus norvegicus; assay: Reduction of lymphocyte count in rat at 1 mg/kg, po measured at 2 to 12 hrs relative to control; type: functional
[42] = Dissociation constant, pKa of the compound; type: physicochemical
[43] = test system: Canis familiaris; assay: as §1; type: ADME, organism-based, Canis lupus familiaris; conditions: in vivo
[44] = test system: Rattus norvegicus; assay: as §3; type: ADME, organism-based; conditions: in vivo
[45] = Clearance in CD rat at 1 mg/kg, iv or 3 mg/kg, po using DMSO/10%(w/v) Kleptose, 0.9% saline(aq) (5%/95%); type: ADME, organism-based; conditions: in vivo
[46] = Volume of distribution at steady state in CD rat at 1 mg/kg, iv or 3 mg/kg, po using DMSO/10%(w/v) Kleptose, 0.9% saline(aq) (5%/95%); type: ADME, organism-based; conditions: in vivo, read-out: Vdss
[47] = test system: Canis familiaris; assay: as §4; type: ADME, organism-based, Canis lupus familiaris; conditions: in vivo
[48] = Half life in CD rat at 1 mg/kg, iv or 3 mg/kg, po using DMSO/10%(w/v) Kleptose, 0.9% saline(aq) (5%/95%); type: ADME, organism-based; conditions: in vivo

Row | Structure (SMILES) | EC50 [3] | EC50 [5] | half-life [6] | Vdss [7] | fraction unbound [10] | IC50 [11] | CLH [12] | half-life [13] | clearance [14] | Vd [16] | CLH [18] | IC50 ([19]; Rattus norvegicus, Lewis) | IC50 [20] | IC50 [23] | bioavailability [24] | IC50 [28] | Vd [29] | bioavailability [32] | IC50 [35] | IC50 [39] | other results
1 | CC(C)Oc1ccc(-c2nc(-c3ccc4c(c3)CCNCC4)no2)cc1C#N | > 31.6 µM | 0.0251 µM | 6.9 h | 9.1 L/kg |  |  |  |  |  |  |  |  |  |  |  |  |  |  |  |  | Activity [1]: 6%; Activity [2]: 82%; Activity [4]: 75%; bioavailability [8]: 63%
2 | CC(C)Oc1ccc(-c2nc(-c3ccc4c(c3)CCNCC4)no2)cc1Cl | > 31.6 µM | 0.158 µM | 9.5 h | 7.6 L/kg |  |  |  |  |  |  |  |  |  |  |  |  |  |  |  |  | bioavailability [9]: 59%
3 | CC(C)Oc1ccc(-c2nc(-c3cccc4c3cnn4CCC(=O)[O-])no2)cc1Cl.[Na+] | > 31.6 µM | 0.02 µM |  |  | 0.002 | 28 µM | < 0.9 mL/min/g | 7.5 h | 2 mL/min/kg | 1 L/kg | < 1.7 mL/min/g | 0.117 µM | > 50 µM | > 50 µM | 96% | > 50 µM | 1 L/kg | 94% | 25 µM | 7 µM | bioavailability [15]: 59%; half-life [17]: 3.9 h; half-life [21]: 1.2 h; fraction unbound [22]: 0.012; fraction unbound [25]: 0.0018; solubility at 24 h [26]: 11 µg/mL; solubility at 24 h [27]: 44 µg/mL; Vd [30]: 0.4 L/kg; Papp [31]: 20.3 ×10⁻⁶ cm/s; clearance [33]: 4 mL/min/kg; clearance [34]: 3 mL/min/kg; fraction unbound [36]: 0.0017; fraction unbound [37]: 0.001; CLint scaled [38]: < 0.9 mL/min/kg
4 | CC(C)Oc1ncc(-c2nc(-c3cccc4c3OCCNC4CCCC(=O)O)no2)cc1Cl (stereo in doubt; 31b) | 10 µM | 0.0501 µM |  |  | 0.015 | > 50 µM | < 0.9 mL/min/g | 6.6 h | 0.71 mL/min/kg | 0.9 L/kg | 1.7 mL/min/g | 0.099 µM | > 50 µM | > 50 µM | 78% | > 50 µM | 0.4 L/kg | 67% | > 50 µM | > 50 µM | t1/2 [40]: 1.8 h; inhibition in vivo at 1 mg/kg [41]: > 80%; pKa [42]: 8.09; fraction unbound [36]: 0.004; fraction unbound [37]: 0.016
5 | CC(C)Oc1ncc(-c2nc(-c3cccc4c3OCCNC4CCCC(=O)O)no2)cc1Cl (single isomer, unassigned; enantiomer 1) | 20 µM | 0.0398 µM |  |  |  |  |  |  |  |  | 4 mL/min/g |  | > 50 µM | > 50 µM |  | > 50 µM |  |  |  | > 50 µM | Fu [10]: 0.01; Vdss [43]: 1.5 L/kg; t1/2 [40]: 0.84 h; IC50 [19]: 0.091 µM; F [44]: 87%; clearance [45]: 1.03 mL/min/kg; Vd [46]: 0.6 L/kg; F [47]: 50%; half-life [48]: 6.4 h; Fu [37]: 0.014
